Data taken from patent US20070003640A1, “Process for controlling the isomerization of (-)-epicatechin and (+)-catechin in edible products” (priority 2005, published 2007).

Experiment: Isomerization of (+)-catechin to (+)-epicatechin
Type: physicochemical
Conditions: equilibrium mixture from isomerization of (+)-catechin
Text: While the above examples were specifically directed to the isomerization of (−)-epicatechin to (−)-catechin, it will be understood that the same processes can and will result in the isomerization of (+)-catechin to (+)-epicatechin. It will further be understood that the kinetics for the isomerization of (+)-catechin to (+)-epicatechin are similar to those for the isomerization of (−)-epicatechin to (−)-catechin, viz., the equilibrium point for a given set of temperature and pH parameters is essentially the same for either isomerization, and the equilibrium mixture resulting from the isomerization of (+)-catechin is about 70% (+)-catechin and about 30% (+)-epicatechin, with a molar ratio of (+)-epicatechin to (+)-catechin of about 1:2. Indeed, we have observed that the isomerization of (+)-catechin to (+)-epicatechin favors the same equilibrium point as the isomerization of (−)-epicatechin to (−)-catechin, that is, the molar ration of 1:2 (+)-epicatechin:(+)-catechin.

(+)-catechin in equilibrium mixture: about 70% | (+)-epicatechin in equilibrium mixture: about 30%
SMILES: Oc1cc(O)c2c(c1)O[C@H](c1ccc(O)c(O)c1)[C@@H](O)C2 [(+)-catechin]
